Assay results as given in ChEMBL document CHEMBL5647696, “Are all cyclin-dependent kinases 4/6 inhibitors created equal?” (NPJ Breast Cancer, 2019).

Assays:
[1] = Time to reach peak level in human; format: ADME
[2] = Volume of distribution in human; format: ADME
[3] = Elimination half life in human; format: ADME; conditions: read-out: beta t1/2 (converted)
[4] = Drug excretion in human feces; format: ADME, tissue-based; conditions: faeces, read-out: Drug excretion
[5] = Drug excretion in human urine; format: ADME, tissue-based; conditions: read-out: Drug excretion
[6] = Bioavailability in human; format: ADME, organism-based; conditions: in vivo
[7] = Protein binding in human plasma; format: ADME, cell-free; conditions: read-out: PPB (converted)

Row | SMILES | Tmax [1] | Vd [2] | half-life [3] | dose excreted [4] | dose excreted [5] | bioavailability [6] | fraction unbound [7]
1 | CC(=O)c1c(C)c2cnc(Nc3ccc(N4CCNCC4)cn3)nc2n(C2CCCC2)c1=O [PALBOCICLIB] | 6 h | 2580 L | 29 h | – | – | – | –
2 | CN(C)C(=O)c1cc2cnc(Nc3ccc(N4CCNCC4)cn3)nc2n1C1CCCC1 [RIBOCICLIB] | 1 h | 1090 L | 30 h | 69% | 23% | – | –
3 | CCN1CCN(Cc2ccc(Nc3ncc(F)c(-c4cc(F)c5nc(C)n(C(C)C)c5c4)n3)nc2)CC1 [ABEMACICLIB] | 8 h | 690 L | – | 81% | 3% | 45% | 0.07
